Reference: publication PMC6982876, “Synthesis of Novel Benzodifuranyl; 1,3,5-Triazines; 1,3,5-Oxadiazepines; and Thiazolopyrimidines Derived from Visnaginone and Khellinone as Anti-Inflammatory and Analgesic Agents” (Molecules, 2020)
Marks after values point to notes of the source that are not given here.

How the values were obtained:
[1] = tested on: acetic acid-induced writhing in mice; experiment: Acetic acid-induced writhing test (analgesic activity); format: in vivo; conditions: 10 mg/kg p.o., n = 5; for Writhing Number in 20 min (Mean ± SEM): acetic acid 1 h after dosing; for Analgesic Activity (% protection): writhing test
Method: The analgesic activity of the compounds was performed using the writhing test as described by Gawade et al.. Mice weight ranged from 25 to 30 g. Then, mice were divided into 18 different groups, each containing five animals. The animals fasted for 8 h before the experiment. Administration of the compounds (10 mg/kg, p.o.) was performed orally. Equal doses of diclofenac as the reference drug and saline as a negative control were also administrated orally. Writhing was induced one hour after compound administration by using 0.1 mL of 1% glacial acetic acid at a volume of 0.1 mL/10 g body weight. The number of writhing responses (stretching of the abdomen, extension of hind limbs, twisting of the trunk, and elongation of the body) observed was counted for 20 min. The protection percentile against acetic acid-induced writhing was calculated according to the following formula: (1) Analgesic activity (%) =n−n′/n×100* where n is the mean number of writhes of the control group, and n’ is the mean number of writhes of the tested compound group.

ovine COX-1 = biological target: T1, ovine COX-1 (Ovis aries, UniProt P05979); experiment: In vitro COX inhibitor screening assay (EIA kit, Cayman), COX-1; format: biochemical; conditions: mean of two determinations, enzyme kit, read-out: COX1 IC50
T1 construct: purchased Cayman Chemical, Ann Arbor, MI, USA 560131
T1 sequence (P05979 25-600): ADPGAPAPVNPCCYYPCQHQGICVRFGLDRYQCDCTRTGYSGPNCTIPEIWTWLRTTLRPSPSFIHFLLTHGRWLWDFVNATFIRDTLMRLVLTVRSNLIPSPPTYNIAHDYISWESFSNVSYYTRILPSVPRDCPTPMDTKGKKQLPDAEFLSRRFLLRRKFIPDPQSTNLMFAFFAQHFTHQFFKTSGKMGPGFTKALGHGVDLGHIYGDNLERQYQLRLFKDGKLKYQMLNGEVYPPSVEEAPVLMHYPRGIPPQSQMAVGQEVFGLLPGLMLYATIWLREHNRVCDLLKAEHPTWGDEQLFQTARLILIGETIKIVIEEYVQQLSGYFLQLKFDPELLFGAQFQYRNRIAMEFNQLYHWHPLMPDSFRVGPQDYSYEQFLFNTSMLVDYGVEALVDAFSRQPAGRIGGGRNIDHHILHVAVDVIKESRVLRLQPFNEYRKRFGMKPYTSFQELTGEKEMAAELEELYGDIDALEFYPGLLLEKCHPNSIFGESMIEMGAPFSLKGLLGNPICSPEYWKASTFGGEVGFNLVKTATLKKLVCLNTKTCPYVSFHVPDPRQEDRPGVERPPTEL
Method: (§1) Furthermore, the selectivity index for COX-2 (COX-1 IC50 / COX-2 IC50) was calculated for the compounds.

[2] = tested on: carrageenan-induced paw edema in rats; experiment: Carrageenan-induced paw edema (anti-inflammatory activity); format: in vivo; conditions: 10 mg/kg oral; for % Change in Paw Height (Mean ± SEM): n = 5
Method: Albino rats (150–180 g) were used. The rats were divided into 11 experimental groups of five rats each. One hour after oral administration of the compounds (10 mg/kg), 0.1 mL of 1% carrageenan solution was injected in the left hind paw of each animal. Rat paw volumes were measured with a digital caliber plethysmometer (UGO Basile, Varese, Italy) used to measure inflammation height at 0, 1, 2, and 3 h after carrageenan injection. The percentage increase in inflammation in the left hind paw, in comparison to the uninjected right hind paw, was determined, calculated, and expressed as the amount of inflammation. […] The anti-inflammatory activity of the selected analgesic compounds after 3 h was expressed as percentage inhibition of edema, which was calculated according to the following equation: (2) Inhibition of edema (%) =Vcont−Vtest/Vcont×100* where V cont is the edema volume in the control group, and V test is the edema volume in the group of the screened compound.

human recombinant COX-2 = biological target: T2, human recombinant COX-2 (Homo sapiens, UniProt P35354); experiment: In vitro COX inhibitor screening assay (EIA kit, Cayman), COX-2; format: biochemical; conditions: for COX2 (SI) selectivity index: COX-1 IC50 / COX-2 IC50; for IC50: COX-2, mean of two determinations, enzyme kit, read-out: COX2 IC50
T2 construct: purchased Cayman Chemical, Ann Arbor, MI, USA 560131
T2 sequence (P35354 18-604): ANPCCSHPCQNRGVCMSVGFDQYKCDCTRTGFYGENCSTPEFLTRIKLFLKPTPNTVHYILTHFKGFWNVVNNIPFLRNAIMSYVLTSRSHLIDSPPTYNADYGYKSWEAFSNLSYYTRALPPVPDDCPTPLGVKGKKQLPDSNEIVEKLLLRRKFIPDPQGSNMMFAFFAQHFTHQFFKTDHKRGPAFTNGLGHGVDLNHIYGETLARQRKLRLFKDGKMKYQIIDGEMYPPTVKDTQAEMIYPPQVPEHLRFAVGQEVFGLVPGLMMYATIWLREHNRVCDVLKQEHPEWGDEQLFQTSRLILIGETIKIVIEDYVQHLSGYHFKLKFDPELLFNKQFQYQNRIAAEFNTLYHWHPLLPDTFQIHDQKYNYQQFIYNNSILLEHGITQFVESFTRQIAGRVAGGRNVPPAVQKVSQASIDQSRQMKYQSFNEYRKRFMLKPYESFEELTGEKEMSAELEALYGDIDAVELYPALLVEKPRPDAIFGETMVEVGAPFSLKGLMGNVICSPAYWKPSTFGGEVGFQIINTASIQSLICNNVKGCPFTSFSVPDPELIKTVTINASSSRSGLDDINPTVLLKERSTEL
Method: as §1

[3] = tested on: interleukin-1 beta (IL-1 β); experiment: ELISA of serum interleukin-1 beta after paw edema test; format: in vivo, rats; conditions: rat serum at the end of the paw edema test, mean ± SEM, n = 5
Method: IL1 is one of the important inflammatory mediators and is used to confirm the anti-inflammatory activities of new anti-inflammatory compounds. At the end of the paw edema test, blood samples were collected from the orbital axis of the eye under light ether anesthesia. Sera were separated after centrifugation of blood at 5000 rpm for 15 min; the sera were stored at –80 °C until the ELISA assay was performed according to the manufacturer instructions.

## COc1c2ccoc2cc2oc(C(=Nc3cc(N4CCOCC4)nc(N4CCOCC4)n3)N3CCOCC3)c(C)c12 [Compound 10b, N-(2,6-dimorpholinopyrimidin-4-yl)-1-(4-methoxy-3-methylbenzo [1,2-b: 5,4-b`]difuran-2-yl)-1-morpholinomethanimine]
[1]
  Writhing Number in 20 min (Mean ± SEM): 27 ± 1.1 ^a
  Analgesic Activity (% protection): 48 ± 1.5 ^a %
Ovine COX-1
  IC50: 4600 nM
other
  melting point: > 350 °C
[2]; 1 hr after carrageenan
  % Change in Paw Height (Mean ± SEM): 0.21 ± 0.02 ^a %
[2]; 2 hr after carrageenan
  % Change in Paw Height (Mean ± SEM): 0.16 ± 0.01 ^a %
[2]; 3 hr after carrageenan
  Anti-Inflammatory Activity (% Inhibition of Edema): 65%
  % Change in Paw Height (Mean ± SEM): 0.18 ± 0.01 ^a %
Human recombinant COX-2
  COX2 (SI) selectivity index: 96
  IC50: 48 nM
[3]
  IL-1 β Concentration: 33 ± 0.38 ^b Pg /mL

## COc1c2occc2c(OC)c2c(C)c(C(=Nc3cc(N4CCOCC4)nc(N4CCOCC4)n3)N3CCOCC3)oc12 [Compound 10d, 1-(4,8-dimethoxy-3-methylbenzo [1,2-b: 5,4-b`]difuran-2-yl)-N-(2,6-dimorpholino-pyrimidin-4-yl)-1-morpholinomethanimine]
[1]
  Writhing Number in 20 min (Mean ± SEM): 26 ± 1.2 ^a
  Analgesic Activity (% protection): 49 ± 1.1 ^a %
Ovine COX-1
  IC50: 4450 nM
other
  melting point: > 350 °C
[2]; 1 hr after carrageenan
  % Change in Paw Height (Mean ± SEM): 0.20 ± 0.01 ^a %
[2]; 2 hr after carrageenan
  % Change in Paw Height (Mean ± SEM): 0.15 ± 0.02 ^a %
[2]; 3 hr after carrageenan
  Anti-Inflammatory Activity (% Inhibition of Edema): 66%
  % Change in Paw Height (Mean ± SEM): 0.17 ± 0.02 ^a %
Human recombinant COX-2
  COX2 (SI) selectivity index: 97
  IC50: 46 nM
[3]
  IL-1 β Concentration: 32 ± 0.45 ^b Pg /mL

## COc1c2ccoc2cc2oc(C3=NC4=CC(=O)N5C(=O)CSC5N4C=N3)c(C)c12 (stereo not drawn) [Compound 11a, 8-(4-methoxy-3-methylbenzo[1,2-b:5,4-b`]difuran-2-yl)-2-hydro-5H,11aH-thiazolo[2’,3’: 2,3]pyrimido[1,6-a][1,3,5]triazine-3,5-dione]
[1]
  Writhing Number in 20 min (Mean ± SEM): 39 ± 2.1 ^a
  Analgesic Activity (% protection): 36 ± 0.75 ^a %
Ovine COX-1
  IC50: 6850 nM
other
  melting point: > 350 °C
[2]; 1 hr after carrageenan
  % Change in Paw Height (Mean ± SEM): 0.30 ± 0.02 ^a %
[2]; 2 hr after carrageenan
  % Change in Paw Height (Mean ± SEM): 0.24 ± 0.01 ^a %
[2]; 3 hr after carrageenan
  Anti-Inflammatory Activity (% Inhibition of Edema): 55%
  % Change in Paw Height (Mean ± SEM): 0.28 ± 0.01 ^a %
Human recombinant COX-2
  COX2 (SI) selectivity index: 81
  IC50: 85 nM
[3]
  IL-1 β Concentration: 43 ± 1.15 ^b Pg /mL

## COc1c2occc2c(OC)c2c(C)c(C3=NC4=CC(=O)N5C(=O)CSC5N4C=N3)oc12 (stereo not drawn) [Compound 11b, 8-(4,8-dimethoxy-3-methylbenzo[1,2-b:5,4-b`]difuran-2-yl)-2-hydro-5H,11aH-thiazolo [2’, 3’:2,3]pyrimido[1,6-a][1,3,5]triazine-3,5-dione]
[1]
  Writhing Number in 20 min (Mean ± SEM): 37 ± 2.3 ^a
  Analgesic Activity (% protection): 38 ± 0.80 ^a %
Ovine COX-1
  IC50: 6600 nM
other
  melting point: > 350 °C
[2]; 1 hr after carrageenan
  % Change in Paw Height (Mean ± SEM): 0.29 ± 0.01 ^a %
[2]; 2 hr after carrageenan
  % Change in Paw Height (Mean ± SEM): 0.23 ± 0.01 ^a %
[2]; 3 hr after carrageenan
  Anti-Inflammatory Activity (% Inhibition of Edema): 56%
  % Change in Paw Height (Mean ± SEM): 0.27 ± 0.02 ^a %
Human recombinant COX-2
  COX2 (SI) selectivity index: 83
  IC50: 80 nM
[3]
  IL-1 β Concentration: 42 ± 0.98 ^b Pg /mL

## COc1c2ccoc2cc2oc(C3=NC4=CC(=O)N5C(=O)CSC5N4C(=O)CO3)c(C)c12 (stereo not drawn) [Compound 12a, 8-(4-methoxy-3-methylbenzo[1,2-b:5,4-b`]difuran-2-yl)-5H,12aH-thiazolo[2’,3’:2,3] pyrimido[6,1-d][1,3,5]oxadiazepine-3,5,11(2H,10H)-trione]
[1]
  Writhing Number in 20 min (Mean ± SEM): 35 ± 1.2 ^a
  Analgesic Activity (% protection): 40 ± 1.50 ^a %
Ovine COX-1
  IC50: 6400 nM
other
  melting point: > 350 °C
[2]; 1 hr after carrageenan
  % Change in Paw Height (Mean ± SEM): 0.28 ± 0.02 ^a %
[2]; 2 hr after carrageenan
  % Change in Paw Height (Mean ± SEM): 0.23 ± 0.01 ^a %
[2]; 3 hr after carrageenan
  Anti-Inflammatory Activity (% Inhibition of Edema): 57%
  % Change in Paw Height (Mean ± SEM): 0.26 ± 0.01 ^a %
Human recombinant COX-2
  COX2 (SI) selectivity index: 85
  IC50: 75 nM
[3]
  IL-1 β Concentration: 41 ± 0.85 ^b Pg /mL

## COc1c2occc2c(OC)c2c(C)c(C3=NC4=CC(=O)N5C(=O)CSC5N4C(=O)CO3)oc12 (stereo not drawn) [Compound 12b, 8-(4,8-dimethoxy-3-methylbenzo[1,2-b:5,4-b`]difuran-2-yl)-5H,12aH-thiazolo[2’,3’:2,3] pyrimido[6,1-d][1,3,5]oxadiazepine-3,5,11(2H,10H)-trione]
[1]
  Writhing Number in 20 min (Mean ± SEM): 34 ± 1.7 ^a
  Analgesic Activity (% protection): 41 ± 1.10 ^a %
Ovine COX-1
  IC50: 6100 nM
other
  melting point: > 350 °C
[2]; 1 hr after carrageenan
  % Change in Paw Height (Mean ± SEM): 0.28 ± 0.01 ^a %
[2]; 2 hr after carrageenan
  % Change in Paw Height (Mean ± SEM): 0.22 ± 0.02 ^a %
[2]; 3 hr after carrageenan
  Anti-Inflammatory Activity (% Inhibition of Edema): 58%
  % Change in Paw Height (Mean ± SEM): 0.25 ± 0.02 ^a %
Human recombinant COX-2
  COX2 (SI) selectivity index: 87
  IC50: 70 nM
[3]
  IL-1 β Concentration: 40 ± 0.22 ^b Pg /mL
